Results taken from ChEMBL document CHEMBL3596159, “Beyond substrate analogues: new inhibitor chemotypes for glycosyltransferases” (Medchemcomm, 2014).
*1 amine or outer side, *2 acyl side, *3 side chain or, on linkers, in order; H or OH if unused. Where a SMILES comes first, the peptide text is derived from it. Bridges are numbered along the chain shown (N, C = ends). [ ]: non-standard residue; d: D form. The star is where a group is joined. Orn(4R-OH,5R-OH) = O=C([C@H](C[C@@H](O)[C@@H](O)N[*:3])N[*:1])[*:2]; Tetradecanoyl(10R,12S-Me2) = CC[C@H](C)C[C@H](C)CCCCCCCCC(=O)*; hTyr(3S-OH,4S-OH) = N[C@H](C(=O)O)[C@H](O)[C@@H](O)c1ccc(O)cc1; Gln(3R-OH) = NC(=O)C[C@@H](O)[C@H](N)C(=O)O; Pro(3S-OH) = O=C(O)[C@H]1NCC[C@@H]1O; Hyp = O=C(O)[C@@H]1C[C@@H](O)CN1

How the values were obtained:
[1] = biological target: T1, UDP-N-acetylglucosamine--N-acetylmuramyl-(pentapeptide) pyrophosphoryl-undecaprenol N-acetylglucosamine transferase (Escherichia coli (strain K12)) (UniProt P17443); assay: Inhibition of Escherichia coli MurG at 2.5 microg/ml
T1 sequence (whole entry): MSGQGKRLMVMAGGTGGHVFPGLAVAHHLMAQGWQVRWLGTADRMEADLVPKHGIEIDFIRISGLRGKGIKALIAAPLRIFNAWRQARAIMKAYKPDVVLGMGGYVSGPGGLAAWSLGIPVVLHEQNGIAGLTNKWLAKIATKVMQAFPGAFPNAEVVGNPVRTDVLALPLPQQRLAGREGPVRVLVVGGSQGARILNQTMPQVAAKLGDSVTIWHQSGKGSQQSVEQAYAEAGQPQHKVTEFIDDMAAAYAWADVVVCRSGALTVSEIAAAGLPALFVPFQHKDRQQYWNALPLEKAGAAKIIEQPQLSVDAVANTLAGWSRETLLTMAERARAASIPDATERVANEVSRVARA

[2] = biological target: T2, Ceramide glucosyltransferase (Homo sapiens) (UniProt Q16739); assay: Inhibition of glucosylceramide synthase (unknown origin) at 5 uM
T2 sequence (whole entry): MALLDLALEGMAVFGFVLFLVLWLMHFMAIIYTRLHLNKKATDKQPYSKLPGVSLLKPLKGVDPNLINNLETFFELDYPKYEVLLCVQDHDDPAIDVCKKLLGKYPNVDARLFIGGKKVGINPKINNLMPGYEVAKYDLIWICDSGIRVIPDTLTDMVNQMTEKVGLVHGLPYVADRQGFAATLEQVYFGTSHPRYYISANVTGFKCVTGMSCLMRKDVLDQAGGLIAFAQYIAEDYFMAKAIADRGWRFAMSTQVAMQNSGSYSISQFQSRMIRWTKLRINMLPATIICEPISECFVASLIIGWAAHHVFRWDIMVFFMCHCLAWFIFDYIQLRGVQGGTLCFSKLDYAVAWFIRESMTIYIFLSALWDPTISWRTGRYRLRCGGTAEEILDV

Streptococcus mutans = assay: Inhibition of Streptococcus mutans sucrose-6-glucosyltransferase at 50 uM
[3] = biological target: T3, Phospho-N-acetylmuramoyl-pentapeptide-transferase/UDP-N-acetylglucosamine--N-acetylmuramyl-(pentapeptide) pyrophosphoryl-undecaprenol N-acetylglucosamine transf (Escherichia coli K-12, UniProt P0A6W3+P17443); assay: Inhibition of Escherichia coli MraY/MurG; format: protein assay
T3 sequence (P0A6W3 whole entry): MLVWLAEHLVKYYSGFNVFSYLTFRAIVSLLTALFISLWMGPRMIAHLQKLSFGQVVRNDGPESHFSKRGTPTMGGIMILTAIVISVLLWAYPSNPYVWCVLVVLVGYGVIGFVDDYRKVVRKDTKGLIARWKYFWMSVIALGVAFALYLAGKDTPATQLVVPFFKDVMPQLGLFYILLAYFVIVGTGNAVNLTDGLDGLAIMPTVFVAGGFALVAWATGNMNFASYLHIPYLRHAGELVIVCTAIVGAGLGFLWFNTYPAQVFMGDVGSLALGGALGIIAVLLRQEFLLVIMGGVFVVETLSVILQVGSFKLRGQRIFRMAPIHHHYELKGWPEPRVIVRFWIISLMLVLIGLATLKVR
T3 sequence (P17443 whole entry): T1 sequence (whole entry)

[4] = biological target: T4, UDP-N-acetylglucosamine--peptide N-acetylglucosaminyltransferase 110 kDa subunit (Homo sapiens) (UniProt O15294); assay: Inhibition of OGT (unknown origin); conditions: concentration not given here
T4 sequence (whole entry): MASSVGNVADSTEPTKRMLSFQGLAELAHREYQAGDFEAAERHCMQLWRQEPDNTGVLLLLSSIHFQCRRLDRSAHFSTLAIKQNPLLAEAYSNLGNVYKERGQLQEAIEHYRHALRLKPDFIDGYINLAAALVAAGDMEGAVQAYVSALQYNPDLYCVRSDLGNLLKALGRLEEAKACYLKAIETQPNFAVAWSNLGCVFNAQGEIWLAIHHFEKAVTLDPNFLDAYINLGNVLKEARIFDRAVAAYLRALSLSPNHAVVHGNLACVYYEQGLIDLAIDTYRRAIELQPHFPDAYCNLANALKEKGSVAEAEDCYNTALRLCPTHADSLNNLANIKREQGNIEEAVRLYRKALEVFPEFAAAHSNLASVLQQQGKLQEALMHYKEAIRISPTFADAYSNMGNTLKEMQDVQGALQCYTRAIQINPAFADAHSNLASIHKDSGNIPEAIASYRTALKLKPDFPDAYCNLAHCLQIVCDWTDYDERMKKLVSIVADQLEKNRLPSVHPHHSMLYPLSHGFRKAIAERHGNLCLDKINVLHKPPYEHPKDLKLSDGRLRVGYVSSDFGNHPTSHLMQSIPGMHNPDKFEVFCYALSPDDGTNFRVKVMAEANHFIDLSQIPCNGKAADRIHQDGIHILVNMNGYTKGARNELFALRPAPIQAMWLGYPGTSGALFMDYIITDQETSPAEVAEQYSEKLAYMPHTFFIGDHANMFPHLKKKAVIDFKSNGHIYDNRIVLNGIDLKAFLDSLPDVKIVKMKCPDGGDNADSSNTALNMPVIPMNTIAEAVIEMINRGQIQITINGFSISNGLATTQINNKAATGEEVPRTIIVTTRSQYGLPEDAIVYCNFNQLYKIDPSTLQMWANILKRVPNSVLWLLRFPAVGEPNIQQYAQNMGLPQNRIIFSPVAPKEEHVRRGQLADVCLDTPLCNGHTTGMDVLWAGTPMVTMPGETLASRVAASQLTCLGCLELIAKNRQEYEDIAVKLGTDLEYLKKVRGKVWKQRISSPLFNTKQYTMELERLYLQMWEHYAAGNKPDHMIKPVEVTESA

Trypanosoma brucei = assay: Inhibition of Trypanosoma brucei DPMS at 1 mM
[5] = biological target: T5, CMP-N-acetylneuraminate-beta-galactosamide-alpha-2,3-sialyltransferase 1 (Homo sapiens, UniProt Q11201); assay: Inhibition of ST3Gal 1 (unknown origin)
T5 sequence (Q11201 whole entry): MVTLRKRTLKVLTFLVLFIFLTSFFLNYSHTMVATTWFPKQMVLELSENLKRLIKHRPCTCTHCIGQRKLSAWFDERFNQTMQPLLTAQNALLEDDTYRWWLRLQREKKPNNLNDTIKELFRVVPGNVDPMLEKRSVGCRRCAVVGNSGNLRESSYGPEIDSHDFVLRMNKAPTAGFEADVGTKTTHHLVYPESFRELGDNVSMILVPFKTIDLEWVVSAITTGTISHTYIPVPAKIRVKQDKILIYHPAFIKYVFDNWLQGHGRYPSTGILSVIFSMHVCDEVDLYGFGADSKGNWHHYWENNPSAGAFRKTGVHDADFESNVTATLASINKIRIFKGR

[6] = Inhibition of candida albicans beta-(1,3)-glucan synthase assessed as decrease in transfer of radiolabelled glucose from UDP-[3H]-glucose onto acceptor
[7] = Inhibition of MraY (unknown origin)

For `COc1c(N/C=C2\C(=O)N(c3ccccc3C)N=C2C)cc([N+](=O)[O-])cc1[N+](=O)[O-]`, the inhibition [1] was 66%.
With `CCCCCCCCCC(=O)N[C@H](CN1CCOCC1)[C@H](O)c1ccccc1` the inhibition [2] was 16%.
For `CCCCCCCC/C(I)=C(/I)CCCCCCCC(=O)OCC(COC(=O)CCCCCCC/C(I)=C(/I)CCCCCCCC)OC(=O)CCCCCCC/C(I)=C(/I)CCCCCCCC`, the inhibition (Streptococcus mutans) was 26.3%.
With `COC1=C(O)c2c(O)cc(C)c3c(O)cc(O)c(c23)C1=O` the IC50 [3] was 54 µM.
For `O=C1OC2(c3cc(I)c(O)cc3Oc3cc(O)c(I)cc32)c2ccccc21`, the IC50 [3] was 166 µM.
`CCCCCCCCCCCCC/C=C/[C@@H](O)[C@@H](CN1CCOCC1)NC(=O)CCCCCCCCCCCCCCC` gave an inhibition [2] of 73%.
Work on `CCOC(=O)C(C(C)C)C(N)Cc1ccc(F)cc1` (configuration not stated) yielded an inhibition [4] of over 30%.
`NS(=O)(=O)c1ccc(-c2ccc(/C=C3\C(=O)N(c4cccc(S(N)(=O)=O)c4)N=C3C(F)(F)F)o2)cc1` showed an inhibition [1] of 66%.
Compound `CCCCCCCCCCCCC/C=C/[C@H](O)[C@H](CN1CCOCC1)NC(=O)CCCCCCCCCCCCCCC` has an inhibition [2] of 5%.
With `CC1=NN(c2ccc(Cl)c(C(=O)O)c2)C(=O)/C1=C\c1ccc(-c2ccccc2C(=O)O)o1` the inhibition [1] was 48%.
`O=C(O)CN1C(=O)/C(=C\c2ccc(OCc3ccccc3)c(OCc3ccccc3)c2)SC1=S` gave an inhibition (Trypanosoma brucei) of 80%.
In the case of `C[C@H](CCC(=O)O)[C@H]1CC[C@H]2[C@@H]3CC[C@@H]4C[C@H](O)CC[C@]4(C)[C@H]3CC[C@]12C` [LITHOCHOLIC ACID], the IC50 [5] is reported as 21 µM.
Compound `CCCCCCCCCCCCC/C=C/[C@H](O)[C@@H](CN1CCOCC1)NC(=O)CCCCCCCCCCCCCCC` has an inhibition [2] of 5%.
Compound `O=C(CN1C(=O)S/C(=C/c2ccc(Cl)cc2)C1=O)Nc1cc([N+](=O)[O-])ccc1O` has an inhibition [1] of 72%.
With `COc1cc(/C=C2\C(=O)NC(=O)N(c3ccc(C)cc3)C2=O)cc([N+](=O)[O-])c1O` the inhibition [1] was 72%.
Work on `CCOC(=O)c1ccccc1-c1c2cc(Br)c(=O)c(Br)c-2oc2c(Br)c(O)c(Br)cc12` yielded an IC50 [3] of 18.4 µM.
`CC[C@H](C)C[C@H](C)CCCCCCCCC(=O)N[C@H]1C[C@@H](O)[C@@H](O)NC(=O)[C@@H]2[C@@H](O)CCN2C(=O)[C@H]([C@H](O)CC(N)=O)NC(=O)[C@H]([C@H](O)[C@@H](O)c2ccc(O)cc2)NC(=O)[C@@H]2C[C@@H](O)CN2C(=O)[C@H]([C@@H](C)O)NC1=O` ({Tetradecanoyl(10R,12S-Me2)}-[Orn(4R-OH,5R-OH)]T[Hyp][hTyr(3S-OH,4S-OH)][Gln(3R-OH)][Pro(3S-OH)]; lactam 1-C) gave an IC50 [6] of 0.07 µM.
Compound `NC[C@H]1O[C@@H](O[C@H](c2cn(Cc3ccc(COc4ccc(C(=O)c5ccccc5)cc4)cc3)nn2)[C@H]2O[C@@H](n3ccc(=O)[nH]c3=O)[C@H](O)[C@@H]2O)[C@H](O)[C@@H]1O` has an IC50 [7] of 50 µM.
`O=C(O)CN1C(=O)/C(=C\c2cccc(OCc3ccccc3)c2)SC1=S` gave an inhibition (Trypanosoma brucei) of 77%.
For `COc1cc(/C=C2\C(=O)N(c3ccc(Cl)c(C(=O)O)c3)N=C2C)cc([N+](=O)[O-])c1O`, the inhibition [1] was 54%.
For `O=C(O)CN1C(=O)/C(=C\c2ccccc2O)SC1=S`, the inhibition (Trypanosoma brucei) was 77%.
Compound `O=C(/C=C/c1cccs1)Nc1scc(-c2ccccc2)c1C(=O)O` has an inhibition [4] of over 30%.
In the case of `NC[C@H]1O[C@@H](O[C@H](c2cn(CCCCCCCCCCOc3ccc(C(=O)c4ccccc4)cc3)nn2)[C@H]2O[C@@H](n3ccc(=O)[nH]c3=O)[C@H](O)[C@@H]2O)[C@H](O)[C@@H]1O`, the IC50 [7] is reported as 125 µM.
For `CCCCCCCCCCCCC/C=C/[C@@H](O)[C@@H](CN1CCCC1)NC(=O)CCCCCCCCCCCCCCC`, the inhibition [2] was 87%.
In the case of `CCCCCCCCCCCCCCCC(=O)N[C@H](CN1CCOCC1)[C@H](O)c1ccccc1`, the inhibition [2] is reported as 32%.
Compound `CCCCCCCC/C=C\CCCCCCCC(=O)O` has an inhibition (Streptococcus mutans) of 42.4%.
With `Cc1cc(/C=C2\C(=O)NC(=S)N(c3ccc(Cl)cc3)C2=O)c(C)n1-c1cc(C(=O)O)cc(C(=O)O)c1` the inhibition [1] was 88%.
Work on `NC[C@H]1O[C@@H](O[C@H](c2cn(CCCOc3ccc(C(=O)c4ccccc4)cc3)nn2)[C@H]2O[C@@H](n3ccc(=O)[nH]c3=O)[C@H](O)[C@@H]2O)[C@H](O)[C@@H]1O` yielded an IC50 [7] of 100 µM.
`CCCCCCCCCCCCC/C=C/[C@@H](O)[C@H](CN1CCOCC1)NC(=O)CCCCCCCCCCCCCCC` gave an inhibition [2] of 5%.
`NC[C@H]1O[C@@H](O[C@H](c2cn(CCCCCOc3ccc(C(=O)c4ccccc4)cc3)nn2)[C@H]2O[C@@H](n3ccc(=O)[nH]c3=O)[C@H](O)[C@@H]2O)[C@H](O)[C@@H]1O` gave an IC50 [7] of 100 µM.
`CCCCCCCCCCCCCCCC(=O)N[C@H](CN1CCCC1)[C@H](O)c1ccccc1` showed an inhibition [2] of 50%.
Compound `CCCCCCCC/C=C\CCCCCCCC(=O)OC` has an inhibition (Streptococcus mutans) of 16.8%.
`CC[C@H](C)C[C@H](C)CCCCCCCCC(=O)N[C@H]1C[C@@H](O)[C@@H](OCCN)NC(=O)[C@@H]2[C@@H](O)CCN2C(=O)[C@H]([C@H](O)CCN)NC(=O)[C@H]([C@H](O)[C@@H](O)c2ccc(O)cc2)NC(=O)[C@@H]2C[C@@H](O)CN2C(=O)[C@H]([C@@H](C)O)NC1=O` gave an IC50 [6] of 0.001 µM.
`O=C(O)c1ccc2scnc2c1` showed an inhibition [4] of over 30%.
With `O=C1N/C(=N/c2ccccc2)S/C1=C/c1cc(Br)cc(Cl)c1O` the inhibition [1] was 71%.
`C[C@H](CCCn1cc(CCCC(=O)O)nn1)[C@H]1CC[C@H]2[C@@H]3CC[C@@H]4C[C@H](O)CC[C@]4(C)[C@H]3CC[C@]12C` gave an IC50 [5] of 5 µM and a Ki [5] of 2.2 µM.
